Test results: patent US11801242B2, “Compositions and methods for adjuvant cancer therapeutics” (DUKE UNIVERSITY, priority 2018, dated 2023)

Key:
A375 cells [1] = assay: qRT-PCR of p21 mRNA; assay type: cell-based, human; conditions: combination RE01 1.5 μM and cisplatin 1 μM
Procedure: Total RNA was isolated by using the RNeasy Mini kit (Qiagen) from cells treated with RE01 (1.5 μM), cisplatin (1 μM) and a combination of both RE01 (1.5 μM) and cisplatin (1 μM). 5 ng of RNA from each sample was mixed with 10 μl of Applied Biosystems™ PowerUp™ SYBR™ Green Master Mix (ThermoFisher), 1 μl of MultiScribe™ Reverse Transcriptase (ThermoFisher), 0.1 μl of RNaseOUT™ Recombinant Ribonuclease Inhibitor and 5.9 μl of RNase-free water, and run in a one-step qRT-PCR reaction. Each reaction was run in triplicate. Primers used were: p21 F 5′-[…]-3′ (SEQ ID NO: 9), p21 R 5-CGGCGTTTGGAGTGG TAGAAA-3′ (SEQ ID NO: 10); GAPDH F 5′-[…]-3′ (SEQ ID NO: 11), GAPDH R 5′-[…]-3′ (SEQ ID NO: 12).

HT1080 cells [2] = assay: Clonogenic survival after siRNA knock-down of REV1; assay type: cell-based, human; conditions: RE01 1.5 μM, cisplatin 1 μM
Procedure: (§1) 300 cells were plated in triplicate in 6-well plates for 24 hours. Cisplatin (cis-diammineplatinum(II) dichloride, Sigma-Aldrich) was added to relevant wells for 24 hours. All plates were incubated at 37° C. for 24 hours. Media were changed the next day and in fresh media RE01 (at 1.5 μM concentration) was added to untreated or cisplatin-treated cells for another 24 hours. Media were changed at the end of these combination treatments, and cells were allowed to recover for 7 days. To stain the resulting colonies, media were aspirated and the fixative (50% methanol and 10% glacial acetic acid) was added for 10 minutes, followed by the addition of 0.02% Coomassie brilliant blue R-250 stain (ThermoFisher) in methanol: acetic acid: water in a ratio of 46.5:7:46.5 (v/v/v). Colonies that stained blue and contained at least 40 cells were counted. Relative cell survival or colony formation was calculated by dividing colony counts from treated samples by the DMSO or untreated controls.
(§2) REV1 was knocked down by transiently transfecting SMARTpool: ON-TARGETplus REV1 siRNA by nucleofection. The siRNA was mixed with the nucleofection buffer Mouse/Rat Hepatocyte Nucleofector™ Kit (Lonza) and electroporated using the Nucleofector™ 2b device. Full-length mouse Rev1 on the pC3 plasmid (Clontech) was nucleofected using the same buffers and device into Rev1^−/− cells to complement the REV1 function.

A375 cells [3] = assay: Clonogenic survival after siRNA knock-down of REV1; assay type: cell-based, human; conditions: RE01 1.5 μM, cisplatin 1 μM
Procedure: as §1, §2

HT1080 cells [4] = assay: HPRT mutagenesis assay; assay type: cell-based, human; conditions: RE01 1.5 μM, cisplatin 0.5 μM
Procedure: (§3) For the hypoxanthine-guanine phosphoribosyl transferase (HPRT) mutagenesis assay, cells were first grown in HAT (complete media with 100 μM Hypoxanthine, 0.4 μM Aminopterin and 16 μM Thymidine) media (ThermoFisher) for 14 days to weed out any spontaneous HPRT mutants. After HAT selection, cells were exposed to cisplatin at the 0.5 μM concentration for 24 hours. Then, in fresh media, RE01 at a concentration of 1.5 μM was added to cells. After 24 hours of drug treatment, cells were trypsinized and washed with PBS. While 200-600 cells were plated in complete media in triplicates in 6-well plates to determine clonal efficiency, the rest of the cells were plated in complete media to allow the expression of the phenotype for 8 days. Then, 500,000 cells per treatment were plated in sextuplicate in 10 cm dishes in 6-TG media to allow the proliferation of mutated HPRT^− cells. Colonies were fixed (50% methanol and 10% glacial acetic acid), stained (0.02% Coomassie brilliant blue R-250 stain in methanol: acetic acid: water in a ratio of 46.5:7:46.5 (v/v/v)), and counted after 14-20 days. The HPRT mutation frequency was calculated as the ratio of the number of HPRT^− colonies in 6-TG media to the number of surviving colonies plated in complete media to determine clonal efficiency.

Rev1^+/+ MEF cells = assay: HPRT mutagenesis assay; assay type: cell-based, mouse; conditions: RE01 1.5 μM, cisplatin 0.5 μM
Procedure: as §3

[5] = target: T1, chimeric FLAG-tagged POL κ RIR-REV1 CTD (Mus musculus, UniProt Q920Q2); assay: In vitro DSS-crosslinking, Western blot; conditions: 100 μM RE01 NaOH salt
T1 construct: the mouse REV1 CTD (F1150-T1249); His10-GB1 (TEV site) (N, cleaved yes); made in house; host or cells: E. coli BL21 Star (DE3)
T1 sequence (Q920Q2 1150-1249): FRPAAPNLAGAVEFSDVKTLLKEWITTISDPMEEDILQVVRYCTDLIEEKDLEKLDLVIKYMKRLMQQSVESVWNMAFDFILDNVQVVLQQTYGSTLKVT
Procedure: Samples of the chimeric FLAG-tagged POL κ RIR-REV1 CTD in the presence of 0 μM or 100 μM RE01 were treated with increasing molar ratios of DSS (disuccinimidyl suberate) and analyzed by SDS-PAGE followed by Western blotting with anti-FLAG antibody. Monomer and crosslinked dimer bands are labeled.
More specifically, chimeric FLAG-tagged POL κ RIR-REV1 CTD in a buffer containing 25 mM HEPES (pH 7.0), 100 mM KCl, and 4 mM TCEP was mixed with either MPD (control) or RE01 NaOH salt in MPD to yield a reaction solution containing 1 μM protein, 5% MPD, and either 0 or 100 μM compound. Appropriate dilutions of DSS in DMSO were added to the reaction mixture to yield DSS-to-protein molar ratios of 0:1, 0.5:1, 1:1, 5:1, 10:1, and 50:1 and a final DMSO concentration of 5% (v/v). The reaction mixture was incubated for 30 min at room temperature and then quenched by addition of 1 M Tris (pH 8.5). The SDS-loading dye containing 4 mM TCEP and 10.8 mM iodoacetamide (to block free cysteines) was added to each reaction mixture, and the samples were loaded onto a Pre-cast 4-20% gradient SDS-PAGE gel (Bio-Rad). The gel samples were transferred to a 0.45 μm nitrocellulose membrane (Bio-Rad) for Western blotting with the anti-FLAG primary antibody M2 (Sigma-Aldrich) and the HRP-conjugated secondary antibody (LI-COR) and imaging with the LI-COR Odyssey system.

dimerization of the REV1 CTD in solution [5]: promotes the dimerization
SMILES: CC(C)CC(=O)c1c(Nc2ccc(Cl)cc2Cl)[nH]c2c(Cl)ccc([N+](=O)[O-])c2c1=O [RE01, 8-chloro-2-((2,4-dichlorophenyl)amino)-3-(3-methylbutanoyl)-5-nitroquinolin-4(1H)-one]
levels of the p21 biomarker (A375 cells [1]): elevated levels | RE01 mediated sensitization to cisplatin (HT1080 cells [2]): abolished | RE01 mediated sensitization to cisplatin (A375 cells [3]): abolished | frequency of spontaneous and cisplatin-induced HPRT mutations (HT1080 cells [4]): decreased | spontaneous or cisplatin-induced HPRT mutation rates (Rev1^+/+ MEF cells): significantly reduced
